Earlier results as cited in patent publication US12434072B2, “Methods and systems for neural stimulation via visual, auditory and peripheral nerve stimulations” (Cognito Therapeutics, Inc., priority 2016, dated 2025).

Key:
[1] = 70 kg adult
[2] = human clinical trials; low (tracer) doses

Row | Estimated absorbed radiation dose, Adrenals [1] [rad/mCi] | Estimated absorbed radiation dose, Brain [1] [rad/mCi] | Estimated absorbed radiation dose, Breasts [1] [rad/mCi] | Estimated absorbed radiation dose, Gallbladder Wall [1] [rad/mCi] | Estimated absorbed radiation dose, Heart Wall [1] [rad/mCi] | Estimated absorbed radiation dose, Kidneys [1] [rad/mCi] | Estimated absorbed radiation dose, Liver [1] [rad/mCi] | Estimated absorbed radiation dose, Lower Large Intestine Wall [1] [rad/mCi] | Estimated absorbed radiation dose, Lungs [1] [rad/mCi] | Estimated absorbed radiation dose, Muscle [1] [rad/mCi] | Estimated absorbed radiation dose, Ovaries [1] [rad/mCi] | Estimated absorbed radiation dose, Pancreas [1] [rad/mCi] | Estimated absorbed radiation dose, Red marrow [1] [rad/mCi] | Estimated absorbed radiation dose, Skin [1] [rad/mCi] | Estimated absorbed radiation dose, Small Intestine [1] [rad/mCi] | Estimated absorbed radiation dose, Spleen [1] [rad/mCi] | Estimated absorbed radiation dose, Testes [1] [rad/mCi] | Estimated absorbed radiation dose, Thymus [1] [rad/mCi] | Estimated absorbed radiation dose, Thyroid [1] [rad/mCi] | Estimated absorbed radiation dose, Total Body [1] [rad/mCi] | Structure (SMILES) | further results
1 | 0.05 | 0.037 | 0.023 | 0.529 | 0.048 | 0.048 | 0.238 | 0.103 | 0.032 | 0.032 | 0.065 | 0.053 | 0.053 | 0.022 | 0.242 | 0.033 | 0.025 | 0.027 | 0.025 | 0.043 | CNc1ccc(/C=C/c2ccc(OCCOCCOCC[18F])nc2)cc1 [18F-AV-45] | Effective Dose ([1]; Effective Dose): 0.069 rad/mCi; Estimated absorbed radiation dose, Upper Large Intestine Wall [1]: 0.276 rad/mCi; Estimated absorbed radiation dose, Urinary bladder wall [1]: 0.1 rad/mCi; Estimated absorbed radiation dose, Uterus [1]: 0.058 rad/mCi; Most common adverse events [2]: headache, injection site reactions (injection site rash, extravasation, hemorrhage, irritation and puncture site hematoma), musculoskeletal pain, fatigue, and nausea
2 | 0.048 | 0.07 | 0.034 | 0.049 | 0.22 | 0.074 | 0.058 | 0.051 | 0.064 | 0.039 | 0.053 | 0.096 | 0.047 | 0.03 | 0.047 | 0.14 | 0.041 | 0.044 | 0.039 | 0.043 | OC[C@H]1O[C@@H](O)[C@H]([18F])[C@@H](O)[C@@H]1O [FDG] | Critical organ for radiation dose [1]: urinary bladder wall, followed by heart, spleen and pancreas; Estimated absorbed radiation dose, Upper Large Intestine Wall [1]: 0.046 rad/mCi; Estimated absorbed radiation dose, Urinary bladder wall [1]: 0.32 rad/mCi; Estimated absorbed radiation dose, Uterus [1]: 0.062 rad/mCi
